According to publication PMC11580984 (bioRxiv, 2024):
Numbered stars: 1 amine (or outer) side, 2 acyl side, 3 side chain; on linkers, the order of the positions; unused ones are H or OH. Bridge positions count the residues as written; N and C are the ends. Square brackets hold non-standard residues; d marks the D form. Peptide text beside a SMILES is read from it. X1 = O=S(=O)(F)Oc1cc(C[*:1])cc(C[*:2])c1; X2 = Oc1cc(C[*:1])cc(C[*:2])c1; Pra = C#CC[C@H](N)C(=O)O

What was measured:
[1] = biological target: BSA (Bos taurus, UniProt P02769); format: binding; details: highest concentration tested
Chain of BSA (P02769 25-607): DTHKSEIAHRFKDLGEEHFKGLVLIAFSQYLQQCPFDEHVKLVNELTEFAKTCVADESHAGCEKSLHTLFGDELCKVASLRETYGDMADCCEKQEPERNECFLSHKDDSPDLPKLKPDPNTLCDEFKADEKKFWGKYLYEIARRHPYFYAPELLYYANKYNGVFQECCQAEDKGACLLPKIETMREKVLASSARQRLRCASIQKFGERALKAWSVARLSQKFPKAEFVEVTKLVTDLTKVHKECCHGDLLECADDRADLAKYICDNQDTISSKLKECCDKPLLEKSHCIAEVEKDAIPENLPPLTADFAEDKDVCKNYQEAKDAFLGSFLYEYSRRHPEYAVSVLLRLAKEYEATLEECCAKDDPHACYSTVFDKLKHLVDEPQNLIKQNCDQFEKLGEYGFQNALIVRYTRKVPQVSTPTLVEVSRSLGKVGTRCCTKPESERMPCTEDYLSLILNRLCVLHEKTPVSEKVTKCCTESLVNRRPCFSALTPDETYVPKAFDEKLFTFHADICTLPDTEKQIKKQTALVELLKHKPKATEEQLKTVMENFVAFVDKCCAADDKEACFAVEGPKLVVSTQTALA

[2] = system: interaction between Omicron BA2 spike and ACE2; format: binding, SARS-CoV-2
[3] = system: SARS-CoV-2 Omicron BA5
[4] = system: SARS-CoV-2 Omicron BA2
[5] = system: SARS-CoV-2 Omicron BA1
[6] = system: SARS-CoV-2 omicron BA.2; format: cell-based

Compound	labeling of BSA [1]	inhibition activity in MSD assay [2]	antiviral activity [3]	antiviral activity [4]	antiviral activity [5]	change of inhibitory potency after 10-fold dilution [6]	EC50 [3]
C#CC[C@H](N)C(=O)N[C@@H](CCC(N)=O)C(=O)N[C@H]1CSCc2cc(cc(OS(=O)(=O)F)c2)CSC[C@@H](C(=O)NCC(N)=O)NC(=O)[C@H](CC(C)C)NC(=O)[C@H](C(C)C)NC(=O)[C@H](Cc2ccc(O)cc2)NC(=O)[C@H](CC(C)C)NC(=O)[C@H](CC(=O)O)NC(=O)[C@H](CCC(N)=O)NC(=O)[C@H](C(C)C)NC1=O [CP_SW3A] (H-[Pra]QCVQDLYVLCG-NH2; linker 3-11 via X1)	only faint labeling	strong activity					
C#CC[C@H](N)C(=O)N[C@@H](CCC(N)=O)C(=O)N[C@H]1CSCc2cc(O)cc(c2)CSC[C@@H](C(=O)NCC(N)=O)NC(=O)[C@H](CC(C)C)NC(=O)[C@H](C(C)C)NC(=O)[C@H](Cc2ccc(O)cc2)NC(=O)[C@H](CC(C)C)NC(=O)[C@H](CC(=O)O)NC(=O)[C@H](CCC(N)=O)NC(=O)[C@H](C(C)C)NC1=O [CP_SW3A_Bz] (H-[Pra]QCVQDLYVLCG-NH2; linker 3-11 via X2)			only weak background activity	only weak background activity	only weak background activity		
C#CC[C@H](N)C(=O)N[C@@H](CCC(N)=O)C(=O)N[C@H]1CSSC[C@@H](C(=O)NCC(N)=O)NC(=O)[C@H](CC(C)C)NC(=O)[C@H](C(C)C)NC(=O)[C@H](Cc2ccc(O)cc2)NC(=O)[C@H](CC(C)C)NC(=O)[C@H](CC(=O)O)NC(=O)[C@H](CCC(N)=O)NC(=O)[C@H](C(C)C)NC1=O [CP_SW3A_DS] (H-[Pra]QCVQDLYVLCG-NH2; disulfide 3-11)						dramatic loss of activity after dilution	
C#CC[C@H](NC(=O)[C@H](CCC(N)=O)NC(=O)[C@@H]1CSCc2cc(cc(OS(=O)(=O)F)c2)CSC[C@H](NC(=O)CN)C(=O)N[C@@H](CC(C)C)C(=O)N[C@@H](C(C)C)C(=O)N[C@@H](Cc2ccc(O)cc2)C(=O)N[C@@H](CC(C)C)C(=O)N[C@@H](CC(=O)O)C(=O)N[C@@H](CCC(N)=O)C(=O)N[C@@H](C(C)C)C(=O)N1)C(N)=O [CP_SW3A_S1] (H-GCLVYLDQVCQ[Pra]-NH2; linker 2-10 via X1)		loss of inhibition activities	only weak background activity	only weak background activity	only weak background activity		
C#CC[C@H](N)C(=O)N[C@@H](CCC(N)=O)C(=O)N[C@H]1CSCc2cc(cc(OS(=O)(=O)F)c2)CSC[C@@H](C(=O)NCC(N)=O)NC(=O)[C@H](C(C)C)NC(=O)[C@H](CCC(N)=O)NC(=O)[C@H](CC(=O)O)NC(=O)[C@H](CC(C)C)NC(=O)[C@H](Cc2ccc(O)cc2)NC(=O)[C@H](C(C)C)NC(=O)[C@H](CC(C)C)NC1=O [CP_SW3A_S2] (H-[Pra]QCLVYLDQVCG-NH2; linker 3-11 via X1)		loss of inhibition activities	only weak background activity	only weak background activity	only weak background activity		
Sotrovimab: monoclonal antibody targeting the spike protein of SARS-CoV-2, positive control [reference compound]							7 µM
